These results are taken from ChEMBL document CHEMBL4177572, “Recent advances in JAK3 inhibition: Isoform selectivity by covalent cysteine targeting” (Bioorg Med Chem Lett, 2017).

Series [1] has as its target T1, Tyrosine-protein kinase JAK3 (Homo sapiens) (UniProt P52333).
T1 sequence (whole entry): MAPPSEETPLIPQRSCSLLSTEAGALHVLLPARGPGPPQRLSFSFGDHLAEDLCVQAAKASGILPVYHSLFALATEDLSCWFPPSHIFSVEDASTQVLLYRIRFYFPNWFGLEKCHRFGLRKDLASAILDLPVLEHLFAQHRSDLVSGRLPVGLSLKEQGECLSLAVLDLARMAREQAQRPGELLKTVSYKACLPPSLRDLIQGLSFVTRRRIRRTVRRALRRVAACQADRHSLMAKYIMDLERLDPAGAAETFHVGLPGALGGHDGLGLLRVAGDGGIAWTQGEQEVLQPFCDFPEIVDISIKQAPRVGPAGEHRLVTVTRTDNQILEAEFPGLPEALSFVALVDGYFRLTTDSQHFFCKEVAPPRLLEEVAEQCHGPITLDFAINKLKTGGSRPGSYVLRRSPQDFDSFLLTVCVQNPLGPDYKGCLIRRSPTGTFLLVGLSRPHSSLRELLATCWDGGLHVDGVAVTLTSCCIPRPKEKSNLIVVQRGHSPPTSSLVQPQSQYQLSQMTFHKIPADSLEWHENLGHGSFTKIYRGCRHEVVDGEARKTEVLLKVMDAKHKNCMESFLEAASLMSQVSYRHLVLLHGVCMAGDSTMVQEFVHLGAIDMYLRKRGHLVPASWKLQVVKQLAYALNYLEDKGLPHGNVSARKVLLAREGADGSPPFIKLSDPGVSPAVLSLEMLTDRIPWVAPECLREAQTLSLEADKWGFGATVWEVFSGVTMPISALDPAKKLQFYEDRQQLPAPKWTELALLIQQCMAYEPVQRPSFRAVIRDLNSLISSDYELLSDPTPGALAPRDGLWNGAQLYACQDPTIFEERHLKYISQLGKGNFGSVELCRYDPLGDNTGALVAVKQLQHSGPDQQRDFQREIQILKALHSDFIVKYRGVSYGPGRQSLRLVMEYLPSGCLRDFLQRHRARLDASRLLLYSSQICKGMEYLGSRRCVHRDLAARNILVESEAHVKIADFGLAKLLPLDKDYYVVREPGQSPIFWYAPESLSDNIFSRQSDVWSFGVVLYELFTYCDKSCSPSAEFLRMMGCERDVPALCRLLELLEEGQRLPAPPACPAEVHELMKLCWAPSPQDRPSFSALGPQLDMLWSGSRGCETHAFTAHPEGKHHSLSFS
The series can be described thus: Binding affinity to JAK3 (unknown origin) assessed as dissociation half life.

Series [2] is filed under the species Homo sapiens. As to the kind of experiment: Selectivity ratio of IC50 for JAK2 (unknown origin) to IC50 for JAK3 (unknown origin).
Series [3] is filed under the species Homo sapiens. As to the kind of experiment: Selectivity ratio of IC50 for TYK2 (unknown origin) to IC50 for JAK3 (unknown origin).
The species named for series [4] is Homo sapiens. As to the kind of experiment: Selectivity ratio of IC50 for JAK1 (unknown origin) to IC50 for JAK3 (unknown origin).
Series [5] has as its target T2, JAK3/JAK1 (Homo sapiens, UniProt P23458+P52333). The series can be described thus: Inhibition of JAK1/JAK3 in human PBMC CD3+/CD8+ T cells assessed as reduction in IL7-stimulated STAT5 phosphorylation.
Series [6] is described as follows: Half life in rat. The class given is ADME, organism-based. To be noted: in vivo.
Series [7] addresses T2, JAK3/JAK1. The series can be described thus: Inhibition of JAK1/JAK3 in human whole blood CD3+/CD4+ T cells assessed as reduction in IL7-stimulated STAT5 phosphorylation.
The target in series [8] is Tyrosine-protein kinase JAK1/JAK3 (Mus musculus, UniProt P52332+Q62137). As to the kind of experiment: Inhibition of JAK3/JAK1 in mouse CTLL-2 cells assessed as reduction in IL2-stimulated STAT5 phosphorylation. The class given is cell-based.
The target in series [9] is Tyrosine-protein kinase JAK2 (Homo sapiens, UniProt O60674). As to the kind of experiment: Time-dependent inhibition of recombinant human N-terminal His-tagged JAK2 (826 to 1132 residues) expressed in sf21 cells using biotinylated peptide substrate after 1 hr by DELFIA.
Sequence of Tyrosine-protein kinase JAK2 (O60674 whole entry, the tested form may be a part): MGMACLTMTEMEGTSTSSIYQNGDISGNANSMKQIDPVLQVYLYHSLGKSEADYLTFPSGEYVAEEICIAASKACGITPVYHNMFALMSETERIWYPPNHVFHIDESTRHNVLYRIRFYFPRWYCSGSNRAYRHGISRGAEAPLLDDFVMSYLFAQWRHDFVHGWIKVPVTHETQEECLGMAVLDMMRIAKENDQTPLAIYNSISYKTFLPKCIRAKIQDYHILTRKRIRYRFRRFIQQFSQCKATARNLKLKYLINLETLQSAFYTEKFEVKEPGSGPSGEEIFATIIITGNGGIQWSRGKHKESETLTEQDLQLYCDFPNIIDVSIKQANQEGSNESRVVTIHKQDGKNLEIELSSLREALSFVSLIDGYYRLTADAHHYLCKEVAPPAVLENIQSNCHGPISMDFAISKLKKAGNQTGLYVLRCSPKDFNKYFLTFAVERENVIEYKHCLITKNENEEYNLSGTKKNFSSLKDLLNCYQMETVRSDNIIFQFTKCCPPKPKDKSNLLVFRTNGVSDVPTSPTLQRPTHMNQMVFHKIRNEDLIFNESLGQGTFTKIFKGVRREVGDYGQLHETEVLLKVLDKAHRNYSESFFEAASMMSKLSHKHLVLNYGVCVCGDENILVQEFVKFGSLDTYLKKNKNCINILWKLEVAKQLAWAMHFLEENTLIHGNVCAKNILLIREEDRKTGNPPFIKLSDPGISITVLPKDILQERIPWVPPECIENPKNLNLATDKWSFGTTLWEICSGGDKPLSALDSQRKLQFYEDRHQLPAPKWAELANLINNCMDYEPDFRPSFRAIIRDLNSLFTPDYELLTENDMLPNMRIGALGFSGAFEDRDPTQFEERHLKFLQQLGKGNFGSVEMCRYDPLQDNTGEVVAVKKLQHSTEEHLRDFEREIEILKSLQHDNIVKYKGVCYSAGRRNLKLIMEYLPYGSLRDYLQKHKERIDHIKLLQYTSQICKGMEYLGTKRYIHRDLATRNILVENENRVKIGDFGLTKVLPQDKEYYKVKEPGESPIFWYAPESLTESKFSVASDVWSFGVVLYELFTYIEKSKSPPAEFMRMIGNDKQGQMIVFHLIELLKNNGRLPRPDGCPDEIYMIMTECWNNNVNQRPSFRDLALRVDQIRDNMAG

T2 sequence (P23458 whole entry, one chain of several): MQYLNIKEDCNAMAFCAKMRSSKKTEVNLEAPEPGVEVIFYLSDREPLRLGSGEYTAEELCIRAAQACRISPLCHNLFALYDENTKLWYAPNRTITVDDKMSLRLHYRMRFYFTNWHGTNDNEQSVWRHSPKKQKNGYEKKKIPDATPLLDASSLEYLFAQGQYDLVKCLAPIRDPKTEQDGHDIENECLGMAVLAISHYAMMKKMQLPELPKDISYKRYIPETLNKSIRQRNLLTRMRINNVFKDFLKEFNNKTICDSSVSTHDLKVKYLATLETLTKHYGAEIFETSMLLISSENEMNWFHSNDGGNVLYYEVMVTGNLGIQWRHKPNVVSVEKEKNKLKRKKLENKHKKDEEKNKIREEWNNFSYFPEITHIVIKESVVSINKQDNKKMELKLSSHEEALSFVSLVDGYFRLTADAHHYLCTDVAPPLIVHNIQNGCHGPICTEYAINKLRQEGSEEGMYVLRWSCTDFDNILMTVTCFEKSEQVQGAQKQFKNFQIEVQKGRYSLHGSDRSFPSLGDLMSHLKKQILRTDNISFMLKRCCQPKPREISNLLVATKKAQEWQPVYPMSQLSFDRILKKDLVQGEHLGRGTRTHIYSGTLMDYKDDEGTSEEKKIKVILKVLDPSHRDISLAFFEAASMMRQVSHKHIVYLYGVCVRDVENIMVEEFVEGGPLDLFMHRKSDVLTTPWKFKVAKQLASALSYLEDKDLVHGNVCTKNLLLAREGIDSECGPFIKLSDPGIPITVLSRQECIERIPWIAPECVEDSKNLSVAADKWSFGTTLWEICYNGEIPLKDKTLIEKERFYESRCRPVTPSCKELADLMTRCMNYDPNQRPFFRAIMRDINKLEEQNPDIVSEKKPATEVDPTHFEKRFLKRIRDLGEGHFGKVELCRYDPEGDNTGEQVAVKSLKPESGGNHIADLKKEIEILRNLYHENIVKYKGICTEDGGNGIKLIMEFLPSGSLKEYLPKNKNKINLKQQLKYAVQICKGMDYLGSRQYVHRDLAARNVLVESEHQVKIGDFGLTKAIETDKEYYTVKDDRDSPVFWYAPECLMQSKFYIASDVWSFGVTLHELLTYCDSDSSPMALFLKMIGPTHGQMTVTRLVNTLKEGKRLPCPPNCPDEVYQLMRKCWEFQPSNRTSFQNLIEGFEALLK

Turning to `CN(C)C(=O)/C(C#N)=C/c1ccc(Nc2cnc3[nH]cc(C(=O)C(C)(C)C)c3n2)cc1`, the T1/2 in series [1] was found to be 9 h.
`c1nc(-c2cn(CC3CO3)nn2)c2cc[nH]c2n1` (centres undefined): the Ratio IC50 in the series listed under Homo sapiens [2] was determined as 70; in the series listed under Homo sapiens [3], 160; in the series listed under Homo sapiens [4], 70.
Regarding `C=C(C)C(=O)Nc1cccc(-c2ncnc3[nH]cc(C(=O)OCC)c23)c1`, the values for the IC50 (on JAK3/JAK1 [5]; at JAK3/JAK1 [7]; in series [8]) were 0.28 µM, 5.1 µM and 0.07 µM, respectively. In addition, the half-life in [6] is 0.3 h.
Regarding `C=CC(=O)Nc1ccc2ncn(-c3cncc(NC(C)(C)C)n3)c2c1`, the concentration for half-maximal inhibition (IC50) in series [9] is 0.04 µM.

As usually defined, the IC50 is the concentration needed to halve the response being measured. As a reminder, the half-life is the time in which the quantity being followed falls by half. Lower therefore signals rapid decline.
